Assay [1] has as its target T1, Recombinant human PKC-delta (His-tagged 345-676) (Homo sapiens, UniProt Q05655).
T1 construct: PKC-delta (His-tagged 345-676); His
Briefly: PKC-delta inhibition assay (HTRF KinEASE kit). The conditions noted are these: ratio, PKC-theta vs PKC-delta HTRF; for PKC-theta/PKC-delta selectivity (binned): binned A to G. Format: biochemical. (In TR-FRET formats the signal depends on donor and acceptor labels being close together.)

The test system of assay [2] is IL-2 secretion by human effector memory T cells (TEM). Briefly: Effector memory T cells IL-2 release assay (CD3/CD28 stimulation, HTRF IL-2 detection). Format: cell-based. To be noted: 24 h; for IC50: Homo sapiens, T-cell. Here is the method:
Test compound-mediated inhibition of NFκB signalling in T cells was assessed by quantification of the IL-2 secretion by human effector memory T cells (TEM) upon treatment and stimulation. Human TEM cells were isolated from buffy coats of healthy donors obtained from the French blood bank.
Finally, 10 doses of test compound, originally prepared in DMSO by serial semi-log step dilution, were also added to cells in triplicate wells. Final DMSO concentration in wells was 0.1% in a total volume of 100 μL complete medium. Plates were incubated for 24 h at 37° C. in 5% CO2 atmosphere. After incubation, cell suspensions were centrifuged at 400×g and culture supernatants were recovered and stored at −80° C. […] IL-2 levels were determined in cell supernatants using an HTRF human IL-2 detection kit (Cisbio, cat #62HIL02PEH).

The target in assay [3] is T2, Recombinant human PKC-theta (His-tagged 362-706) (Homo sapiens, UniProt Q04759).
T2 construct: Recombinant human PKC-theta (His-tagged 362-706); His
The experiment in a line: PKC-theta inhibition assay (HTRF KinEASE kit). Format: biochemical. To be noted: ATP 6.5 μM, STK substrate 525 nM. The procedure:
PKC-theta and PKC-delta biochemical activities were measured using the PKC-theta HTRF KinEASEkit kit, according to manufacturer's instructions (Cisbio, catalogue number 61ST1PEJ). Briefly, the kinase buffer component of the kit was supplemented with 10 mM MgCl2, 1 mM DTT and 0.1% Tween 20. […] The streptavidin_XL665 and STK antibody-cryptate detection reagents were mixed according to the manufacturer's instructions. Test compounds were diluted in DMSO in a series of 10 semi-log step doses; 10 nL of each compound dose were dispensed in 384 well plates. […] The reaction was started by addition of the substrate and ATP and incubated at 25° C. for 30 minutes or 20 minutes for the PKC-theta and PKC-delta assays, respectively. The detection reagents were added, and the plate was incubated in the dark for 2 hours. […] The ratio of acceptor and donor emission signals was calculated for each well. Percent inhibition values were calculated from the HTRF ratios at different doses and fitted to a 4-parameter logistic curve to determine IC50 values (see Table 2).

Setting [4] is: binned A to G, read-out: PKC-theta IL2 pIC50 (binned) (converted).
Where [5] appears, read: read-out: PKC-theta IL2 pIC50 (converted).
Where [6] appears, read: binned A to H, read-out: PKC-theta HTRF pIC50 (binned) (converted).
[7] abbreviates: read-out: PKC-theta HTRF pIC50 (converted).

Like-named read-outs stand apart in the source and are kept apart here.

T1 sequence (Q05655 345-676): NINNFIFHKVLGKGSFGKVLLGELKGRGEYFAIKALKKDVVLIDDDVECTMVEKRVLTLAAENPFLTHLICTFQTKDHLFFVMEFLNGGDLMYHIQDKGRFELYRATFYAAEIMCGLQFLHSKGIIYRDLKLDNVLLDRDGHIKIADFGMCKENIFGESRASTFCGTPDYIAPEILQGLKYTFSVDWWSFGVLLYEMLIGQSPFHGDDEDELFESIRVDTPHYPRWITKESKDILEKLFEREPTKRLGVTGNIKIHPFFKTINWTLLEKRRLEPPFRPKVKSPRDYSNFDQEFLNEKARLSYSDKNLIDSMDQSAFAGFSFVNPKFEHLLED
T2 sequence (Q04759 362-706): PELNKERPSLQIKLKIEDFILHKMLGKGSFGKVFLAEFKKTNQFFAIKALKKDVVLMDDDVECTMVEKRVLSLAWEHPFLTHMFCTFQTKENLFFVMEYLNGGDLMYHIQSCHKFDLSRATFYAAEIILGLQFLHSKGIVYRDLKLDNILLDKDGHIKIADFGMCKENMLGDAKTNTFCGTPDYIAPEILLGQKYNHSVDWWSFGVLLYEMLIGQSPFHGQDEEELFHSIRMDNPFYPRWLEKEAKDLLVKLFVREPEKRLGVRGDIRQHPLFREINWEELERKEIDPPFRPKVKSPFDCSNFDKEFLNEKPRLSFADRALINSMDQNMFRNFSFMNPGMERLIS

Take `CC[C@@]1(C)C(=O)Nc2nccc(-c3cc(C(F)(F)F)cc(N4CCN[C@@H](C)C4)n3)c21` (single isomer, unassigned) [Example 154]: the PKC-theta/PKC-delta selectivity in assay [1] came out at 19. Besides, in assay [1], the “PKC-theta/PKC-delta selectivity (binned)” value is “D (a ratio of between 10 and 20)”. The IC50 in assay [2] (setting [4]) is 100 to 316 nM; in assay [2] (setting [5]) it was 126 nM; in assay [3] (setting [6]), 3.16 to 10 nM; in assay [3] (setting [7]), 7.94 nM.
For the compound `CO[C@]1(C)C(=O)Nc2nccc(-c3cc(C(F)(F)F)cc(N4CCNC[C@H]4C)n3)c21` (single isomer, unassigned) [Example 158], the PKC-theta/PKC-delta selectivity in assay [1] was 10. For the same compound, the “PKC-theta/PKC-delta selectivity (binned)” value in assay [1] is “E (a ratio of between 5 and 10)”. In addition, the IC50 in assay [2] (setting [4]) is 100 to 316 nM; in assay [2] (setting [5]), 200 nM; in assay [3] (setting [6]) it was 3.16 to 10 nM; in assay [3] (setting [7]), 6.31 nM.
Take `CC[C@@]1(O)C(=O)Nc2nccc(-c3cc(Cl)cc(N4CCN[C@@H](C)C4)n3)c21` (single isomer, unassigned) [Example 162]: in assay [1], the PKC-theta/PKC-delta selectivity turned out to be 33. Moreover, the “PKC-theta/PKC-delta selectivity (binned)” value in assay [1] is “B (a ratio of between 30 and 50)”. For the same compound, the IC50 is 316 to 1000 nM in assay [2] (setting [4]), 794 nM in assay [2] (setting [5]), 100 to 316 nM in assay [3] (setting [6]) and 316 nM in assay [3] (setting [7]).
As for `CC[C@]1(O)C(=O)Nc2nccc(-c3cc(Cl)cc(N4CCN[C@@H](C)C4)n3)c21` (single isomer, unassigned) [Example 163], in assay [1], the PKC-theta/PKC-delta selectivity turned out to be 10. Also, in assay [1], the “PKC-theta/PKC-delta selectivity (binned)” value is “D (a ratio of between 10 and 20)”. The IC50 in assay [2] (setting [4]) is 10 to 31.6 nM; in assay [2] (setting [5]) it was 31.6 nM; in assay [3] (setting [6]), 3.16 to 10 nM; in assay [3] (setting [7]), 3.98 nM.
Take `CC[C@@]1(C)C(=O)Nc2nccc(-c3cc(Cl)cc(N4CCNC[C@H]4C)n3)c21` (single isomer, unassigned) [Example 164]: the PKC-theta/PKC-delta selectivity in assay [1] is 5. For the same compound, the “PKC-theta/PKC-delta selectivity (binned)” value in assay [1] is “F (a ratio of between 1 and 5)”. The IC50 in assay [2] (setting [4]) is 10 to 31.6 nM; in assay [2] (setting [5]), 12.6 nM; in assay [3] (setting [6]), 1 to 3.16 nM; in assay [3] (setting [7]) it was 2 nM.
In the case of `CC[C@]1(C)C(=O)Nc2nccc(-c3cc(Cl)cc(N4CCNC[C@H]4C)n3)c21` (single isomer, unassigned) [Example 165], the PKC-theta/PKC-delta selectivity in assay [1] came to 12. The “PKC-theta/PKC-delta selectivity (binned)” value in assay [1] was “D (a ratio of between 10 and 20)”. Also, the IC50 in assay [2] (setting [4]) is 31.6 to 100 nM; in assay [2] (setting [5]), 63.1 nM; in assay [3] (setting [6]), 3.16 to 10 nM; in assay [3] (setting [7]), 6.31 nM.
Regarding `CC[C@@]1(O)C(=O)Nc2nccc(-c3cc(C(F)(F)F)cc(N4CCNC[C@H]4C)n3)c21` (single isomer, unassigned) [Example 166], the PKC-theta/PKC-delta selectivity in assay [1] was 6. In assay [1], the “PKC-theta/PKC-delta selectivity (binned)” value is “E (a ratio of between 5 and 10)”. For the same compound, the IC50 is 10 to 31.6 nM in assay [2] (setting [4]), 31.6 nM in assay [2] (setting [5]), 1 to 3.16 nM in assay [3] (setting [6]) and 3.16 nM in assay [3] (setting [7]).
`CC[C@]1(O)C(=O)Nc2nccc(-c3cc(C(F)(F)F)cc(N4CCNC[C@H]4C)n3)c21` (single isomer, unassigned) [Example 167]: the PKC-theta/PKC-delta selectivity in assay [1] was found to be 33. The “PKC-theta/PKC-delta selectivity (binned)” value in assay [1] is “B (a ratio of between 30 and 50)”. The IC50 in assay [2] (setting [4]) is more than 1000 nM; in assay [2] (setting [5]), 2510 nM; in assay [3] (setting [6]) it was 100 to 316 nM; in assay [3] (setting [7]) it was 316 nM.
Take `CC[C@]1(C)C(=O)Nc2nccc(-c3cc(Cl)cc(N4CCN[C@@H](C)C4)n3)c21` (single isomer, unassigned) [Example 171]: the PKC-theta/PKC-delta selectivity in assay [1] worked out at 9. Moreover, the “PKC-theta/PKC-delta selectivity (binned)” value in assay [1] is “E (a ratio of between 5 and 10)”. In addition, the IC50 in assay [2] (setting [4]) is 31.6 to 100 nM; in assay [2] (setting [5]), 39.8 nM; in assay [3] (setting [6]), 1 to 3.16 nM; in assay [3] (setting [7]), 2.51 nM.
With `CO[C@]1(C)C(=O)Nc2nccc(-c3cc(Cl)cc(N4CCNC[C@H]4C)n3)c21` (single isomer, unassigned) [Example 172], the PKC-theta/PKC-delta selectivity in assay [1] was 13. In assay [1], the “PKC-theta/PKC-delta selectivity (binned)” value is “D (a ratio of between 10 and 20)”. The IC50 in assay [2] (setting [4]) was 100 to 316 nM; in assay [2] (setting [5]) it was 100 nM; in assay [3] (setting [6]), 3.16 to 10 nM; in assay [3] (setting [7]) it was 10 nM.
As to `CO[C@]1(C)C(=O)Nc2nccc(-c3cc(C(F)(F)F)cc(N4CCNC[C@H]4C)n3)c21` (single isomer, unassigned) [Example 176], in assay [1], the PKC-theta/PKC-delta selectivity is 20. The “PKC-theta/PKC-delta selectivity (binned)” value in assay [1] is “C (a ratio of between 20 and 30)”. The “PKC-theta IL2 pIC50” value in assay [2] was found to be 6.9. Besides, in assay [2] (binned A to G), the “PKC-theta IL2 pIC50 (binned)” value was “E (a measured pIC50 of between 6.5 and 7.0)”. The IC50 in assay [3] (setting [6]) was 10 to 31.6 nM; in assay [3] (setting [7]), 12.6 nM.
On to `CC[C@H]1CN(c2cc(C(F)(F)F)cc(-c3ccnc4c3[C@](C)(OC)C(=O)N4)n2)CCN1` (single isomer, unassigned) [Example 191], for which the PKC-theta/PKC-delta selectivity in assay [1] amounted to 22. The “PKC-theta/PKC-delta selectivity (binned)” value in assay [1] was “C (a ratio of between 20 and 30)”. Moreover, the IC50 in assay [2] (setting [4]) is 100 to 316 nM; in assay [2] (setting [5]), 251 nM; in assay [3] (setting [6]), 10 to 31.6 nM; in assay [3] (setting [7]), 15.8 nM.
`CO[C@]1(C)C(=O)Nc2nccc(-c3cc(C(C)(F)F)cc(N4CCNC[C@H]4C)n3)c21` (single isomer, unassigned) [Example 193]: the PKC-theta/PKC-delta selectivity in assay [1] amounted to 16. Besides, the “PKC-theta/PKC-delta selectivity (binned)” value in assay [1] is “D (a ratio of between 10 and 20)”. The IC50 is 31.6 to 100 nM in assay [2] (setting [4]), 79.4 nM in assay [2] (setting [5]), 3.16 to 10 nM in assay [3] (setting [6]) and 10 nM in assay [3] (setting [7]).
As for `CC[C@]1(C)C(=O)Nc2nccc(-c3cc(C(F)(F)F)cc(N4CCNC[C@H]4C)n3)c21` (single isomer, unassigned) [Example 197], the PKC-theta/PKC-delta selectivity in assay [1] is listed as 14. In addition, the “PKC-theta/PKC-delta selectivity (binned)” value in assay [1] was “D (a ratio of between 10 and 20)”. The IC50 in assay [2] (setting [4]) was 10 to 31.6 nM; in assay [2] (setting [5]) it was 15.8 nM; in assay [3] (setting [6]) it was 0.316 to 1 nM; in assay [3] (setting [7]), 1 nM.
In the case of `CC[C@@]1(C)C(=O)Nc2nccc(-c3cc(C(F)(F)F)cc(N4CCNC[C@H]4C)n3)c21` (single isomer, unassigned) [Example 198], the PKC-theta/PKC-delta selectivity in assay [1] is listed as 30. In assay [1], the “PKC-theta/PKC-delta selectivity (binned)” value is “C (a ratio of between 20 and 30)”. The IC50 in assay [2] (setting [4]) was 31.6 to 100 nM; in assay [2] (setting [5]), 63.1 nM; in assay [3] (setting [6]) it was 3.16 to 10 nM; in assay [3] (setting [7]) it was 3.98 nM.
Consider `CC[C@]1(C)C(=O)Nc2nccc(-c3cc(C(C)(F)F)cc(N4CCN[C@@H](C)C4)n3)c21` (single isomer, unassigned) [Example 199], for which the PKC-theta/PKC-delta selectivity in assay [1] amounted to 16. For the same compound, in assay [1], the “PKC-theta/PKC-delta selectivity (binned)” value was “D (a ratio of between 10 and 20)”. In addition, the IC50 in assay [2] (setting [4]) is 10 to 31.6 nM; in assay [2] (setting [5]), 25.1 nM; in assay [3] (setting [6]) it was 1 to 3.16 nM; in assay [3] (setting [7]) it was 1.58 nM.

The record behind these values is patent US20260035367A1 (Celgene Corporation, priority 2021, published 2026).
